Tests used:
Assay type in all cases: in vivo
[1] = system: Eurasian watermilfoil (EWM); experiment: GR50 and Isobole analysis of triclopyr and 2,4-d alone and in combination, above ground biomass 33 days after treatment (Example 4); conditions: total herbicide concentration, regression of 30-120 ppb treatments, n=3
Text: Eurasian watermilfoil (EWM) was collected from ponds in Seymour, Ind. Single apical meristems were planted into small pots (13.5 cm length×3.75 cm diameter) containing Wallace Farm® (topsoil amended with 14-14-14 slow release Osmocote® fertilizer (˜2.5 g Osmocote/kg soil). Approximately 5 to 7 cm of the apical section extended above the sediment at planting, and a sand cap was placed over the potting soil (˜2 cm deep). Plants were then transferred to a 12 L acrylic tanks filled with well water. Tanks were maintained in a growth room with 14:10 h photoperiod at 26° C. Plants were allowed to establish growth for 26 days before they were treated.
Pretreatment above ground biomass was harvested the day of the treatment and dry weights were determined. Treatments were replicated three times in a completely randomized design. […]
All above ground biomass was harvested 33 days after treatment. Biomass was dried to constant moisture at 70° C. for 3 d, and dry weights were determined. Data were subjected to regression analysis using Sigma Plot software, and a GR50 was determined (concentration causing a 50% reduction in dry weight) for each treatment. […]

[2] = system: Eurasian watermilfoil (EWM); experiment: Root and shoot dry weights of Eurasian watermilfoil after treatment with triclopyr, 2,4-d, diquat alone and in combination, harvest at 32 d (Example 3); conditions: single herbicide at 50 ppb, vs untreated controls
Text: Apical sections (12 to 15 cm in length) of Eurasian watermilfoil (EWM) were planted into small pots (13.5 cm length×3.75 cm diameter) containing Wallace Farm® (topsoil amended with 14-14-14 slow release Osmocote® fertilizer (˜2.5 g Osmocote/kg soil). Approximately 5 to 7 cm of the apical section extended above the sediment at planting, and a sand cap was placed over the potting soil (˜2 cm deep). Plants were then transferred to a 12 L acrylic tanks filled with well water. Plants were allowed to grow to two-thirds the height of tanks (approximately 7 d) before the following treatment was initiated in triple replicate: 1) Untreated controls, 2) triclopyr 50 ppb, 3) 2,4-d 50 ppb, 4) diquat 50 ppb, 5) diquat 50 ppb+triclopyr 50 ppb, 6) diquat 50 ppb+2,4-d 50 ppb. Plants were harvested at 32 d. At harvest, plants were rinsed free of algae, roots and shoots were separated, and placed in paper sacks in a drying oven for 4 d at 70° C. temperature, and dry weights were determined (FIG. 3.1).

[3] = system: Eurasian watermilfoil (EWM); experiment: Root and shoot dry weights of Eurasian watermilfoil after 40 d exposure to triclopyr and fluridone, 12 L tanks (Example 2); conditions: triclopyr 75 ppb alone
Text: Apical sections (12 to 15 cm in length) of Eurasian watennilfoil (EWM) were planted into small pots (13.5 cm length×3.75 cm diameter) containing Wallace Farm® topsoil amended with 14-14-14 slow release Osmocote® fertilizer (˜2.5 g Osmocote/kg soil). Approximately 5 to 7 cm of the apical section extended above the sediment at planting, and a sand cap was placed over the potting soil (˜2 cm deep). Plants were then transferred to a 12 L acrylic tanks filled with well water. Plants were allowed to grow for 7 d before the following treatments were initiated in triple replicate: 1) fluridone at 10 ppb, 2) triclopyr at 75 ppb, 3) fluridone (10 ppb) plus triclopyr (75 ppb), 4) untreated controls. Plants were harvested at 40 d. At harvest, plants were rinsed free of algae, roots and shoots were separated, and placed in paper sacks in a drying oven for 4 d at 70° C. temperature, and dry weights were determined (FIG. 2.1).

Compound: O=C(O)COc1ccc(Cl)cc1Cl [2,4-d, (2,4-dichlorophenoxy) acetic acid]
- GR50 (concentration causing a 50% reduction in dry weight) [1]: 162.6 ppb
- reduction in root biomass [2]: 66%

Compound: c1cc[n+]2c(c1)-c1cccc[n+]1CC2 [diquat, 1,1′-ethylene 2,2′-dipyridylium dibromide]
- reduction in root biomass [2]: 86%

Compound: O=C(O)COc1nc(Cl)c(Cl)cc1Cl [triclopyr, 3,5,6-trichloro-2-pyridyloxyacetic acid]
- GR50 (concentration causing a 50% reduction in dry weight) [1]: 63.0 ppb
- reduction of below ground biomass ([3]; root dry weight): 74%
- reduction of above ground biomass ([3]; shoot dry weight): 96%
- reduction in root biomass [2]: 90%
